According to patent US9346795B2, “Substituted sulfonamides useful as antiapoptotic Bcl inhibitors” (Bristol-Myers Squibb Company, priority 2011, dated 2016):

Experiments:
Bcl-xL = Bcl-xL (Homo sapiens (Human), UniProt Q07817); test: Bcl-xL/Bim Fluorescence Resonance Energy Transfer Assay (FRET); type: binding
Method in brief: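 IC50 values come from non-linear regression over an eleven-point compound titration. Each compound was first incubated with biotinylated Bcl-xL and Bim for 60 min at room temperature. FRET was then detected after a 30 min dark incubation with streptavidin-terbium.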

Bcl-2 = Bcl-2 (Homo sapiens (Human), UniProt P10415); test: Bcl-2/Bim Fluorescence Polarization Assay (FPA); type: binding
Sequence of Bcl-2 (P10415 whole entry): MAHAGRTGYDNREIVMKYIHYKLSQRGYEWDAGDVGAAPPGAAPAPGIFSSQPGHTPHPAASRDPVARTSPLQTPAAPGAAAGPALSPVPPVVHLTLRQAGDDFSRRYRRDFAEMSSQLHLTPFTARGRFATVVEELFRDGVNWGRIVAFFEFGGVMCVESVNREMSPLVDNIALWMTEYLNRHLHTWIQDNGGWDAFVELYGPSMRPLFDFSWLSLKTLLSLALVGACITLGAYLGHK

Sequence of Bcl-xL (Q07817 whole entry): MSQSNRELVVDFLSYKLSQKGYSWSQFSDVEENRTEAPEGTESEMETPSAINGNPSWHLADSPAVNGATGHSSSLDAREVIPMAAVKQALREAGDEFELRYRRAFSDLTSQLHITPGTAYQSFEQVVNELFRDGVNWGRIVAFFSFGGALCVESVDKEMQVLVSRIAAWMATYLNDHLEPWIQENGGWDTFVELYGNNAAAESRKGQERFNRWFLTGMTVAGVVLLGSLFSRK

IC50 (Bcl-xL) [nM]	IC50 (Bcl-2) [nM]	Structure (SMILES)
80	90	CCCCN(C(=O)c1nn(-c2ccc(C(=O)NS(=O)(=O)c3ccc4ccccc4c3)cc2C(=O)N2CCc3ccccc3C2)c(C)c1Cl)c1ccc(C(=O)OC)cc1 [Example 154, methyl 4-(N-butyl-4-chloro-5-methyl-1-(4-(naphthalen-2-ylsulfonylcarbamoyl)-2-(1,2,3,4-tetrahydroisoquinoline-2-carbonyl)phenyl)-1H-pyrazole-3-carboxamido)benzoate]
20	70	CCCCN(CCC(=O)NCCN1CCN(C)CC1)C(=O)c1nn(-c2ccc(C(=O)NS(=O)(=O)c3ccc4ccccc4c3)cc2C(=O)N2CCc3ccccc3C2)c(C)c1Cl [Example 158, N-Butyl-4-chloro-5-methyl-N-(3-(2-(4-methylpiperazin-1-yl)ethylamino)-3-oxopropyl)-1-(4-(naphthalen-2-ylsulfonylcarbamoyl)-2-(1,2,3,4-tetrahydroisoquinoline-2-carbonyl)phenyl)-1H-pyrazole-3-carboxamide]
30	230	CCCCN(CCCC)C(=O)c1cc(C)n(-c2ccc(C(=O)NS(=O)(=O)c3ccc4ccccc4c3)cc2C(=O)N2CCc3ccccc3C2)n1 [Example 164, N,N-Dibutyl-5-methyl-1-(4-(naphthalen-2-ylsulfonylcarbamoyl)-2-(1,2,3,4-tetrahydroisoquinoline-2-carbonyl)phenyl)-1H-pyrazole-3-carboxamide]
80	20	CCCCN(Cc1ccc(Cl)c(Cl)c1)C(=O)c1nn(-c2ccc(C(=O)NS(=O)(=O)c3ccc4ccc(I)cc4c3)cc2C(=O)N2CCc3ccccc3C2)c(C)c1Cl [Example 179, N-Butyl-4-chloro-N-(3,4-dichlorobenzyl)-1-(4-(7-iodonaphthalen-2-ylsulfonylcarbamoyl)-2-(1,2,3,4-tetrahydroisoquinoline-2-carbonyl)phenyl)-5-methyl-1H-pyrazole-3-carboxamide]
50	8.49	CCCCN(Cc1ccc(Cl)c(Cl)c1)C(=O)c1nn(-c2ccc(C(=O)NS(=O)(=O)c3ccc4cccc(Cl)c4c3)cc2C(=O)N2Cc3ccccc3C[C@H]2CO)c(C)c1Cl [Example 181, N-Butyl-4-chloro-1-(4-(8-chloronaphthalen-2-ylsulfonylcarbamoyl)-2-((S)-3-(hydroxymethyl)-1,2,3,4-tetrahydroisoquinoline-2-carbonyl)phenyl)-N-(3,4-dichlorobenzyl)-5-methyl-1H-pyrazole-3-carboxamide]
40	10	CCCCN(CCCC)C(=O)c1nn(-c2ccc(C(=O)NS(=O)(=O)c3ccc4c(c3)CCN4Cc3ccc(Cl)c(Cl)c3)cc2C(=O)N2Cc3ccccc3C[C@H]2CO)c(C)c1Cl [Example 189, N,N-Dibutyl-4-chloro-1-(4-(1-(3,4-dichlorobenzyl)indolin-5-ylsulfonylcarbamoyl)-2-((S)-3-(hydroxymethyl)-1,2,3,4-tetrahydroisoquinoline-2-carbonyl)phenyl)-5-methyl-1H-pyrazole-3-carboxamide]
690	260	CCCCN(CCCC)c1nn(-c2ccc(C(=O)NS(=O)(=O)c3ccc4ccccc4c3)cc2C(=O)N2CCc3ccccc3C2)c(C)c1Cl [Example 191, 4-(4-Chloro-3-(dibutylamino)-5-methyl-1H-pyrazol-1-yl)-N-(naphthalen-2-ylsulfonyl)-3-(1,2,3,4-tetrahydroisoquinoline-2-carbonyl)benzamide]
30	60	CCCN(CCC)c1nn(-c2ccc(C(=O)NS(=O)(=O)c3ccc4ccccc4c3)cc2C(=O)N2Cc3ccccc3C[C@H]2CO)c(C)c1Cl [Example 192, 4-(4-Chloro-3-(dipropylamino)-5-methyl-1H-pyrazol-1-yl)-3-((S)-3-(hydroxymethyl)-1,2,3,4-tetrahydroisoquinoline-2-carbonyl)-N-(naphthalen-2-ylsulfonyl)benzamide]
290	30	CCCN(CCC)c1nn(-c2ccc(C(=O)NS(=O)(=O)c3ccc4cccc(Cl)c4c3)cc2C(=O)N2Cc3ccccc3C[C@H]2CO)c(C(F)(F)F)c1Cl [Example 195, 4-(4-Chloro-3-(dipropylamino)-5-(trifluoromethyl)-1H-pyrazol-1-yl)-N-(8-chloronaphthalen-2-ylsulfonyl)-3-((S)-3-(hydroxymethyl)-1,2,3,4-tetrahydroisoquinoline-2-carbonyl)benzamide]
510	40	CCCN(CCC)c1nn(-c2ccc(C(=O)NS(=O)(=O)c3ccc4cccc(Cl)c4c3)cc2C(=O)N2CCc3ccccc3C2)c(C(F)(F)F)c1Cl [Example 196, 4-(4-Chloro-3-(dipropylamino)-5-(trifluoromethyl)-1H-pyrazol-1-yl)-N-(8-chloronaphthalen-2-ylsulfonyl)-3-(1,2,3,4-tetrahydroisoquinoline-2-carbonyl)benzamide]
50	8.85	CCCCN(CCCC)C(=O)c1nn(-c2ccc(C(=O)NS(=O)(=O)c3ccc4c(ccn4Cc4ccc(Cl)c(Cl)c4)c3)cc2C(=O)N2Cc3ccccc3C[C@H]2CO)c(C)c1Cl [Example 198, N,N-dibutyl-4-chloro-1-(4-(1-(3,4-dichlorobenzyl)-1H-indol-5-ylsulfonylcarbamoyl)-2-((S)-3-(hydroxymethyl)-1,2,3,4-tetrahydroisoquinoline-2-carbonyl)phenyl)-5-methyl-1H-pyrazole-3-carboxamide]
130	1010	CCCCN(CCC(=O)NCCN1CCN(C)CC1)C(=O)c1nn(-c2ccc(C(=O)NS(=O)(=O)c3ccc4c(c3)CCN4Cc3ccc(Cl)c(Cl)c3)cc2C(=O)N2CCc3ccccc3C2)c(C)c1Cl [Example 200, N-butyl-4-chloro-1-(4-(1-(3,4-dichlorobenzyl)indolin-5-ylsulfonylcarbamoyl)-2-(1,2,3,4-tetrahydroisoquinoline-2-carbonyl)phenyl)-5-methyl-N-(3-(2-(4-methylpiperazin-1-yl)ethylamino)-3-oxopropyl)-1H-pyrazole-3-carboxamide]
10	10	CCCCN(CCCC)C(=O)c1nn(-c2ccc(C(=O)NS(=O)(=O)c3ccc4cccc(Cl)c4c3)cc2C(=O)N2Cc3ccccc3C[C@H]2CN)c(C)c1Cl [Example 203, 1-(2-((S)-3-(aminomethyl)-1,2,3,4-tetrahydroisoquinoline-2-carbonyl)-4-(8-chloronaphthalen-2-ylsulfonylcarbamoyl)phenyl)-N,N-dibutyl-4-chloro-5-methyl-1H-pyrazole-3-carboxamide]
8.85	9.15	CCCCN(CCCC)C(=O)c1nn(-c2ccc(C(=O)NS(=O)(=O)c3cc(Br)c4c(c3)CCN4CC)cc2C(=O)N2Cc3ccccc3C[C@H]2CO)c(C)c1Cl [Example 205, 1-(4-(7-bromo-1-ethylindolin-5-ylsulfonylcarbamoyl)-2-((S)-3-(hydroxymethyl)-1,2,3,4-tetrahydroisoquinoline-2-carbonyl)phenyl)-N,N-dibutyl-4-chloro-5-methyl-1H-pyrazole-3-carboxamide]
40	7.84	CCCN(CCC)c1nn(-c2ccc(C(=O)NS(=O)(=O)c3ccc4c(Cl)ccc(Br)c4c3)cc2C(=O)N2Cc3ccccc3C[C@H]2CO)c(C)c1Cl [Example 207, N-(8-bromo-5-chloronaphthalen-2-ylsulfonyl)-4-(4-chloro-3-(dipropylamino)-5-methyl-1H-pyrazol-1-yl)-3-((S)-3-(hydroxymethyl)-1,2,3,4-tetrahydroisoquinoline-2-carbonyl)benzamide]
